Results taken from publication PMC10698194 (Nature Communications, 2023).
Values joined by “and” are separate entries in the source; they are usually repeats but may differ in a detail not shown here. Equal entries are not always repeated. Where two headings read alike, the source gives them in different places.

Columns and labels:
mouse KOR, Gαz = mouse KOR, Gαz (Mus musculus, UniProt P33534); test: TRUPATH BRET G protein assay, Gαz; format: cell-based
mouse KOR, Gαi3 = mouse KOR, Gαi3 (Mus musculus, UniProt P33534); test: TRUPATH BRET G protein assay, Gαi3; format: cell-based; details: TRUPATH; read-out: Emax (%) Gαi3
mouse KOR, Gαi3, sequence (P33534 whole entry): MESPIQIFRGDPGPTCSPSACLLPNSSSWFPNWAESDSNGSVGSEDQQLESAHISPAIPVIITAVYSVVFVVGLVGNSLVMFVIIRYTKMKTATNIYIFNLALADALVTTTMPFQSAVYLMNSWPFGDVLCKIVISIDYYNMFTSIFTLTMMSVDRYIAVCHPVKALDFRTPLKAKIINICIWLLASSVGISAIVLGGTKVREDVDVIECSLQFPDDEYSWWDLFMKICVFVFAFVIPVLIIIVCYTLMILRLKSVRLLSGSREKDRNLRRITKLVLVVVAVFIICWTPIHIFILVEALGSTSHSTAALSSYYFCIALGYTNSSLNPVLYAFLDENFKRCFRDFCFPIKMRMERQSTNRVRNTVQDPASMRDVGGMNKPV
mouse KOR, Gαi3, sequence (P08754 2-354 partner): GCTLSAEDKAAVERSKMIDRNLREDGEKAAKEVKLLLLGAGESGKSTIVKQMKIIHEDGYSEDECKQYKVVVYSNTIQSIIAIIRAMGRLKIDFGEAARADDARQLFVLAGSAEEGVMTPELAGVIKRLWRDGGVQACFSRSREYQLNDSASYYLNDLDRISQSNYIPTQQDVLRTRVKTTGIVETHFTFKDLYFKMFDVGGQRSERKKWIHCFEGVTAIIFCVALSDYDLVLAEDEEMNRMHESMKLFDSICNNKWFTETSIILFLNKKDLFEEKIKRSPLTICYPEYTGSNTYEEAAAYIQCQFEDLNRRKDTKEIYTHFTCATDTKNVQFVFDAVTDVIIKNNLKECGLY

mouse KOR, GαoB = mouse KOR, GαoB (Mus musculus, UniProt P33534); test: TRUPATH BRET G protein assay, GαoB; format: cell-based; details: TRUPATH; read-out: Emax (%) GαoB
mouse KOR, GαoB, sequence (P33534 whole entry): as the sequence (P33534 whole entry) above
mouse KOR, GαoB, sequence (P09471 2-354 partner): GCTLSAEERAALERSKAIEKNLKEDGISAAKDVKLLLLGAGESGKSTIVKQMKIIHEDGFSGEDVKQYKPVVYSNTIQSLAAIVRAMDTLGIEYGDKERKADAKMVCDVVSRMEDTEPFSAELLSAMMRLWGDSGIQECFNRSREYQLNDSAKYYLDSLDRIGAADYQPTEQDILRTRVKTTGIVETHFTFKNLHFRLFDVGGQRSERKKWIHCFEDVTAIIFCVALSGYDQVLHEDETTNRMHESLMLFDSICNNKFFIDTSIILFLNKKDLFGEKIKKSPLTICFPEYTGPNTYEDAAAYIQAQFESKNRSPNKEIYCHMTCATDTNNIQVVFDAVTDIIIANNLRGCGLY

mouse KOR, Gαi2 = target: T1, mouse KOR, Gαi2 (Mus musculus, UniProt P33534); test: TRUPATH BRET G protein assay, Gαi2; format: cell-based
T1 construct: expressed in transfected cells; host or cells: HEK293T (ATCC, CRL-3216), transient
T1 sequence (P33534 whole entry): as the sequence (P33534 whole entry) above

mouse KOR, Gαgustducin = mouse KOR, Gαgustducin (Mus musculus, UniProt P33534); test: TRUPATH BRET G protein assay, Gαgustducin; format: cell-based; details: read-out: Emax (%) Gαgustducin
mouse KOR, Gαgustducin, sequence (P33534 whole entry): as above
mouse KOR, Gαgustducin, sequence (A8MTJ3 2-354 partner): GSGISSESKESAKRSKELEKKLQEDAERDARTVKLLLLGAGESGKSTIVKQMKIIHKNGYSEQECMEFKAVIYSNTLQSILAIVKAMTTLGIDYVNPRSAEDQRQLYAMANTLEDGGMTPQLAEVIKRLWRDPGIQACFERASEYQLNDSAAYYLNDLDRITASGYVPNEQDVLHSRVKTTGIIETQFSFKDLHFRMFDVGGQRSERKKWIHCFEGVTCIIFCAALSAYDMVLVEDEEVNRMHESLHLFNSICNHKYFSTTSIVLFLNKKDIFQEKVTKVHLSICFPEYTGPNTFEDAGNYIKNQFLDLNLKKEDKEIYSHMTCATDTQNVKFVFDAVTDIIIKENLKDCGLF

mouse KOR, Gαi1 = mouse KOR, Gαi1 (Mus musculus, UniProt P33534); test: TRUPATH BRET G protein assay, Gαi1; format: cell-based; details: TRUPATH; read-out: Emax (%) Gαi1
mouse KOR, Gαi1, sequence (P33534 whole entry): as the sequence (P33534 whole entry) above
mouse KOR, Gαi1, sequence (P63096 2-354 partner): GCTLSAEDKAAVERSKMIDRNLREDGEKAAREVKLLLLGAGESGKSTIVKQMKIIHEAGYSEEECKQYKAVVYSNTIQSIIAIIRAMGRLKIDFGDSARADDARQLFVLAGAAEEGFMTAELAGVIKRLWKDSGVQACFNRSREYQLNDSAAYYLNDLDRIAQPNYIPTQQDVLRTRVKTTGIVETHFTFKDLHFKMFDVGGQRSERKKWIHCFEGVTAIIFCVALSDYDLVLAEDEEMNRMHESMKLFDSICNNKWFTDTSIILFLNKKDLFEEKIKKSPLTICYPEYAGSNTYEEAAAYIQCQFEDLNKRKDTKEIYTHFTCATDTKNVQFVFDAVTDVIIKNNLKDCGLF

mouse KOR, GαoA = mouse KOR, GαoA (Mus musculus, UniProt P33534); test: TRUPATH BRET G protein assay, GαoA; format: cell-based; details: TRUPATH; read-out: Emax (%) GαoA
mouse KOR, GαoA, sequence (P33534 whole entry): as the sequence (P33534 whole entry) above
mouse KOR, GαoA, sequence (P09471 2-354 partner): as the sequence (P09471 2-354 partner) above

human KOR [1] = target: T2, human KOR (Homo sapiens, UniProt P41145); test: cell-based; design: expressed in transfected cells; host or cells: HEK293, transient
T2 sequence (P41145 whole entry): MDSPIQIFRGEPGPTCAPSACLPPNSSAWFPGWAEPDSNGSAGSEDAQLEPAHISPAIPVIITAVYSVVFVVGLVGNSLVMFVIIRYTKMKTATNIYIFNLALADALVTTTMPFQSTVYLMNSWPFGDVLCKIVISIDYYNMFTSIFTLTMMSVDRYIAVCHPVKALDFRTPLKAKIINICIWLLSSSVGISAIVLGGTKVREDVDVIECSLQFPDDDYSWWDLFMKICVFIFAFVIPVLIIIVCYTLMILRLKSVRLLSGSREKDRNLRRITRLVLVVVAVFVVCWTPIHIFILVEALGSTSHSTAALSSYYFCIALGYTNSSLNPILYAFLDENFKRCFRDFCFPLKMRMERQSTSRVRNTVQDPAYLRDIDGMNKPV

human KOR WT [2] = target: T3, human KOR WT (Homo sapiens, UniProt P41145); test: cAMP inhibition assay normalized to salvinorin A; format: cell-based
T3 construct: FLAG; expressed in transfected cells; host or cells: HEK293T, transient
T3 sequence (P41145 whole entry): as above

[3] = human
Description: (§1) Blood was drawn from healthy volunteers devoid of any medication for 14 days from the antecubital vein using 21 G needles and collected in a serum clot activator tube (4 mL tubes, Greiner bio-one). […] Volunteers gave written informed consent before blood donation. […] Blood samples were collected into Vacuette® clot activator tubes (Greiner Bio-One, Austria). After clotting of about 2 h, the samples were centrifuged at 2200 × g for 15 min at 22 °C. The serum was removed and centrifuged again to remove lipids and cell particles at 16,000 × g at 4 °C for 20 min. […] The samples were incubated at 37 °C under continuous shaking at 300 rotations-per-minute. […] The samples were mixed well and incubated on ice for 10 min. For the protein precipitation, 30 µL of a 20% (w/v) trichloroacetic acid was added and incubated on ice for 15 min. The clear supernatant was harvested by centrifugation at 16,000 × g at 4 °C for 20 min and this sample was used for HPLC analysis. The chromatography HPLC system was a ThermoFisher Ultimate 3000 equipped with a pump, autosampler and single wavelength detector. […] The remaining peptide was calculated relative to the AUC at time point zero. The data points were fitted to a one-phase decay function and to determine the resulting half-life of the peptide in serum.
(§2) 0.1% trifluoroacetic acid in water and acetonitrile/water trifluoroacetic acid 90/10/0.1% (v/v/v) with a
linear separation gradient over 30 min.

human KOR E297A [4] = target: T4, human KOR E297A (Homo sapiens, UniProt P41145, E297A); test: BRET β-arrestin-2 biosensor assay; format: cell-based
T4 construct: FLAG; expressed in transfected cells; host or cells: HEK293T
T4 sequence (P41145 whole entry E297A): as the sequence (P41145 whole entry) above, with E297A counted along it

human KOR L309A [5] = target: T5, human KOR L309A (Homo sapiens, UniProt P41145, L309A); test: BRET β-arrestin-2 biosensor assay; format: cell-based
T5 construct: FLAG; expressed in transfected cells; host or cells: HEK293T
T5 sequence (P41145 whole entry L309A): as the sequence (P41145 whole entry) above, with L309A counted along it

human KOR WT [6] = target: T3, human KOR WT; format: cell-based
human KOR E209A [7] = target: T6, human KOR E209A (Homo sapiens, UniProt P41145, E209A); test: BRET β-arrestin-2 biosensor assay; format: cell-based
T6 construct: FLAG; expressed in transfected cells; host or cells: HEK293 / HEK293T, transient
T6 sequence (P41145 whole entry E209A): as the sequence (P41145 whole entry) above, with E209A counted along it

human KOR E297A [8] = target: T4, human KOR E297A; format: cell-based
mouse KOR [9] = target: T7, mouse KOR (Mus musculus, UniProt P33534); test: cell-based; design: expressed in transfected cells; host or cells: HEK293T, transient; details: for β-arrestin-2 recruitment, normalized: replicates
Target sequence in this assay (P33534 whole entry): as the sequence (P33534 whole entry) above
Target sequence in this assay (P32121 whole entry partner): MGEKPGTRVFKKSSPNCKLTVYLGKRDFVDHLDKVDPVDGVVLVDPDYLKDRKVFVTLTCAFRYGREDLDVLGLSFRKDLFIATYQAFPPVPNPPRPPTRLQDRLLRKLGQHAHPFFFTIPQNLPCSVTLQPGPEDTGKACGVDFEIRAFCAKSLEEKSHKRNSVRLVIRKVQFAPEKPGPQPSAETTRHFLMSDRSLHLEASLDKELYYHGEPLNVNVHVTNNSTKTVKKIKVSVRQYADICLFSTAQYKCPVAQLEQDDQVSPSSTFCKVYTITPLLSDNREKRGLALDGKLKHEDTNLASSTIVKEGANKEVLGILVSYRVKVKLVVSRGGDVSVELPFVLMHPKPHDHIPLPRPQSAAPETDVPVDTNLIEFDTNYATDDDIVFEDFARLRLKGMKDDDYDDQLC

in vitro = details: human, serum, serum stability, amount remaining, Figure S15
Description: as §1, §2
linear separation gradient over 30 min.

human KOR E209A [10] = target: T6, human KOR E209A; format: cell-based
human KOR WT [11] = target: T3, human KOR WT; test: BRET β-arrestin-2 biosensor assay; format: cell-based
mouse KOR [12] = target: T7, mouse KOR; test: cell-based; design: expressed in transfected cells
Target sequence in this assay (P33534 whole entry): as the sequence (P33534 whole entry) above

human KOR L309A [13] = target: T5, human KOR L309A; format: cell-based
human MOR = target: T8, human MOR (Homo sapiens, UniProt P35372); test: [35S]GTPγS binding assay, CHO membranes; format: biochemical
T8 construct: expressed in transfected cells
T8 sequence (P35372 whole entry): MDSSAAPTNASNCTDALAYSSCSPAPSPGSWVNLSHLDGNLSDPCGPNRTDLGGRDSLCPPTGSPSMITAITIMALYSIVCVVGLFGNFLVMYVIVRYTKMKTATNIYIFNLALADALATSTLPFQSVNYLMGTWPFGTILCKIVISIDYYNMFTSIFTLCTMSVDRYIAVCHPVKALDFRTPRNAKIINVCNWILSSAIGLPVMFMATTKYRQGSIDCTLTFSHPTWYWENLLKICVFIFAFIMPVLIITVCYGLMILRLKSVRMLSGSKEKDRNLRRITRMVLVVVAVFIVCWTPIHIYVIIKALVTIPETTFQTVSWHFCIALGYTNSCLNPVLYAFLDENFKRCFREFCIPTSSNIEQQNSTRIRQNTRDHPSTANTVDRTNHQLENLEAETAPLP

mouse KOR [14] = target: T7, mouse KOR; test: biochemical; format: binding; design: expressed in transfected cells; details: for specific [3H]DPN binding, normalized to 100%: replicates
Target sequence in this assay (P33534 whole entry): as the sequence (P33534 whole entry) above

human DOR = target: T9, human DOR (Homo sapiens, UniProt P41143); test: [35S]GTPγS binding assay, CHO membranes; format: biochemical
T9 construct: expressed in transfected cells
T9 sequence (P41143 whole entry): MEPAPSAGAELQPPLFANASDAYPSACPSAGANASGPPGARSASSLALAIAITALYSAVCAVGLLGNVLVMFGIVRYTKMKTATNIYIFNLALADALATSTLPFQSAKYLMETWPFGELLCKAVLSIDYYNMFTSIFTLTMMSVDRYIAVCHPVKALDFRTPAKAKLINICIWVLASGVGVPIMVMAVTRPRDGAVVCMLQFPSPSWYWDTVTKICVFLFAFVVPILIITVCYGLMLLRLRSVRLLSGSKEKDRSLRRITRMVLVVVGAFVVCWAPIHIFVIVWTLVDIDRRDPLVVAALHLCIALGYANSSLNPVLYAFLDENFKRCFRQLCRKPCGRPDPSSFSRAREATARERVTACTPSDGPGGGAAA

human KOR [15] = target: T2, human KOR; test: [35S]GTPγS binding assay, CHO membranes; format: biochemical; design: expressed in transfected cells; details: for stimulation of [35S]GTPγS binding, normalized: replicates

mouse KOR, Gαz, sequence (P33534 whole entry): as the sequence (P33534 whole entry) above
mouse KOR, Gαz, sequence (P19086 2-355 partner): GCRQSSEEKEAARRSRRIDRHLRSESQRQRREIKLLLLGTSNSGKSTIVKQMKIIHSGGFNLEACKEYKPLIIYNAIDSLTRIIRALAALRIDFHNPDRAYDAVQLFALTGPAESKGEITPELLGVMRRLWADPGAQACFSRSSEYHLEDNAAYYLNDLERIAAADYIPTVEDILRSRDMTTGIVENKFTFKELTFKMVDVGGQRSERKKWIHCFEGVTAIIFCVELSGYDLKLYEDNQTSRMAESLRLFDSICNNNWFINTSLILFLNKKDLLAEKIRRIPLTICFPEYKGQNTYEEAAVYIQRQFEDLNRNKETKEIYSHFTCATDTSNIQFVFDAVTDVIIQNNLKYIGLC

## O=C(NC1C=CC2C3Cc4ccc(O)c5c4C2(CCN3CC2CC2)C1O5)c1cccc(I)c1 (stereo not shown) [MP1104]
Mouse KOR, Gαz; Gαz subtype
  highest potency: picomolar range
Mouse KOR, Gαz; TRUPATH
  Emax: 101 ± 3%
Mouse KOR, Gαi3
  Emax: 85 ± 3%
Mouse KOR, GαoB
  Emax: 101 ± 8%
Mouse KOR, Gαi2; Fig. 3i spider plot
  potency (log EC50) Gαi2: -9.607
Mouse KOR, Gαi2; Log [ligand] (M) -5
  Gαi2, normalized response (single replicate values): 68.8651 and 55.859 and 33.3938 and 78.3335 and 54.4028 and 51.6416 and 70.9702 and 67.6827
Mouse KOR, Gαi2; Log [ligand] (M) -6
  Gαi2, normalized response (single replicate values): 66.5004 and 68.8651 and 52.3118 and 47.96 and 45.1988 and 59.9253 and 82.9355 and 80.6889
Mouse KOR, Gαi2; Log [ligand] (M) -7
  Gαi2, normalized response (single replicate values): 70.0475 and 61.7708 and 39.3057 and 73.7314 and 51.6416 and 42.4375 and 78.3335 and 51.1294
Mouse KOR, Gαi2; Log [ligand] (M) -8
  Gαi2, normalized response (single replicate values): 83.0537 and 70.0475 and 49.9471 and 81.0947 and 82.9355 and 89.3784 and 101.344 and 61.7708
Mouse KOR, Gαi2; Log [ligand] (M) -9
  Gαi2, normalized response (single replicate values): 49.9471 and 40.488 and 71.2299 and 59.0049 and 80.1743 and 78.3335 and 46.1192 and 33.3938
Mouse KOR, Gαi2; Log [ligand] (M) -10
  Gαi2, normalized response (single replicate values): 20.3876 and 60.5885 and 12.111 and 42.4375 and 46.1192 and 22.1885 and 25.8702 and 19.2052
Mouse KOR, Gαi2; Log [ligand] (M) -11
  Gαi2, normalized response (single replicate values): -28.0899 and -9.172 and -25.7252 and 25.8702 and -9.105 and 27.711 and -46.8421 and 9.7462
Mouse KOR, Gαi2; Log [ligand] (M) -12
  Gαi2, normalized response (single replicate values): 21.57 and -2.078 and 28.6643 and 3.78 and 2.86 and 9.303 (2×) and 6.199
Mouse KOR, Gαi2; TRUPATH
  Emax: 65 ± 6%
Mouse KOR, Gαi2; source data of Figure 3j, U50,488 about 100
  Gαi2 (Figure 3j): 64.9839
Mouse KOR, Gαgustducin
  Emax: 95 ± 5%
Mouse KOR, Gαi1
  Emax: 100 ± 4%
Mouse KOR, GαoA
  Emax: 87 ± 7%
Human KOR [1]
  potency (log EC50) β-arrestin-2: -8.493
  β-arrestin-2 (Figure 3j): 91
Human KOR [1]; HEK293, read-out: Emax β-arrestin-1 recruitment
  Emax: 91 ± 8%

## CC[C@H](C)[C@H](NC(=O)[C@H](CCCN=C(N)N)NC(=O)[C@H](CCCN=C(N)N)NC(=O)[C@H](CC(C)C)NC(=O)[C@H](Cc1ccccc1)NC(=O)CNC(=O)CNC(=O)[C@@H](N)Cc1ccc(O)cc1)C(=O)N[C@@H](CCCN=C(N)N)C(=O)N1CCC[C@H]1C(=O)N[C@@H](CCCCN)C(=O)N[C@@H](CC(C)C)C(=O)N[C@@H](CCCCN)C(N)=O [dynA1-13]
Human KOR WT [2]
  EC50: 0.00501 nM
[3]
  serum stability, amount remaining, Figure S15: 100
[3]; 40 min
  serum stability, amount remaining, Figure S15: 30
[3]; 1 h
  serum stability, amount remaining, Figure S15: 6
Human KOR E297A [4]
  EC50: 7.94 nM
Human KOR L309A [5]
  EC50: 1.32 nM
Human KOR WT [6]
  EC50: 0.0437 nM
Human KOR E209A [7]
  EC50: 6.61 nM
Human KOR E297A [8]
  EC50: 0.204 nM
Mouse KOR [9]; EC50 β-arrestin-2 recruitment
  EC50: 31 nM
Mouse KOR [9]; potency (log EC50) β-arrestin-3
  EC50: 31 nM
In vitro
  remaining at 5 min: 106%
  remaining at 10 min: 85%
  remaining at 20 min: 66%
  remaining at 40 min: 33%
  remaining at 1 h: 7%
  remaining at 2 h: 2%
  remaining at 4 h: 0%
  remaining at 6 h: 0.1%
  remaining at 24 h: 0.1%
  remaining at 48 h: 5%
Human KOR E209A [10]
  EC50: 0.148 nM
Human KOR WT [11]
  EC50: 0.617 nM
Mouse KOR [12]
  EC50: 4.9 ± 1.8 nM
Human KOR L309A [13]
  EC50: 0.0302 nM

## C=CCN1CC[C@]23c4c5ccc(O)c4O[C@H]2[C@H](N)CC[C@@]3(O)[C@H]1C5 [β-NalA, β-naloxamine]
Human MOR; Log [ligand] (M) -9
  agonist response at MOR, Figure S13a: 0.0
Human MOR; [35S]GTPγS
  EC50 (M) MOR: no stimulation up to 10 µM
Mouse KOR [14]
  Ki: 72 nM
Mouse KOR [14]; Log [ligand] (M) -5
  specific [3H]DPN binding, normalized to 100%: 4.737 and -0.7945 and 2.618
Mouse KOR [14]; Log [ligand] (M) -5.5
  specific [3H]DPN binding, normalized to 100%: 7.624 and 1.593 and 6.477
Mouse KOR [14]; Log [ligand] (M) -6
  specific [3H]DPN binding, normalized to 100%: 15.6906 and 8.934 and 15.8979
Mouse KOR [14]; Log [ligand] (M) -6.5
  specific [3H]DPN binding, normalized to 100%: 35.1232 and 21.428 and 37.6169
Mouse KOR [14]; Log [ligand] (M) -7
  specific [3H]DPN binding, normalized to 100%: 55.6281 and 51.2816 and 59.6036
Mouse KOR [14]; Log [ligand] (M) -7.5
  specific [3H]DPN binding, normalized to 100%: 78.1171 and 80.8645 and 81.4583
Mouse KOR [14]; Log [ligand] (M) -8
  specific [3H]DPN binding, normalized to 100%: 95.8025 and 95.1499 and 93.7293
Mouse KOR [14]; Log [ligand] (M) -8.5
  specific [3H]DPN binding, normalized to 100%: 97.8462 and 101.481 and 96.8345
Mouse KOR [14]; Log [ligand] (M) -9
  specific [3H]DPN binding, normalized to 100%: 98.6307 and 97.8789 and 97.5636
Mouse KOR [14]; Log [ligand] (M) -9.5
  specific [3H]DPN binding, normalized to 100%: 100
Human DOR; Log [ligand] (M) -5
  agonist response at DOR, Figure S13b: 29.5 and 25.6
Human DOR; Log [ligand] (M) -5.5
  agonist response at DOR, Figure S13b: 26.4 and 22
Human DOR; Log [ligand] (M) -6.5
  agonist response at DOR, Figure S13b: 11.6 and 22.3
Human DOR; Log [ligand] (M) -7
  agonist response at DOR, Figure S13b: 11.8 and 10.9 and 6.8
Human DOR; [35S]GTPγS
  EC50 (M) DOR: no stimulation up to 10 µM
Mouse KOR [9]
  EC50: 15 nM
  β-arrestin-3 (Figure 3j): 50.66
Mouse KOR [9]; HEK-293T, read-out: Emax β-arrestin-2 recruitment
  Emax: 51%
Mouse KOR [9]; Log [ligand] (M) -5
  β-arrestin-2 recruitment, normalized: 75.0642 and 33.7213 and 53.9146
Mouse KOR [9]; Log [ligand] (M) -6
  β-arrestin-2 recruitment, normalized: 47.1252 and 26.1295 and 56.8071
Mouse KOR [9]; Log [ligand] (M) -7
  β-arrestin-2 recruitment, normalized: 55.6969 and 39.8004 and 43.7179
Mouse KOR [9]; Log [ligand] (M) -8
  β-arrestin-2 recruitment, normalized: 23.8448 and 3.34 and 20.2841
Mouse KOR [9]; Log [ligand] (M) -9
  β-arrestin-2 recruitment, normalized: 18.9925 and 16.6241
Mouse KOR [9]; Log [ligand] (M) -10
  β-arrestin-2 recruitment, normalized: 9.149 and -15.1009 and 26.0906
Mouse KOR [12]
  EC50: 130 nM
Mouse KOR [12]; HEK-293T, read-out: Emax cAMP assay
  Emax: 61%
Human KOR [15]
  EC50: 150 nM
  Emax: 22%
Human KOR [15]; Log [ligand] (M) -5
  stimulation of [35S]GTPγS binding, normalized: 26.3 and 15.7 and 17.2
Human KOR [15]; Log [ligand] (M) -6
  stimulation of [35S]GTPγS binding, normalized: 26.7 and 25.9 and 13
Human KOR [15]; Log [ligand] (M) -6.5
  stimulation of [35S]GTPγS binding, normalized: 25.5 and 13.8
Human KOR [15]; Log [ligand] (M) -7
  stimulation of [35S]GTPγS binding, normalized: 15.4 and 11.8 and 3.2
Human KOR [15]; Log [ligand] (M) -7.5
  stimulation of [35S]GTPγS binding, normalized: 4.1
Human KOR [15]; Log [ligand] (M) -8
  stimulation of [35S]GTPγS binding, normalized: 17.5 and 5.8 and 1.8
Human KOR [15]; Log [ligand] (M) -8.5
  stimulation of [35S]GTPγS binding, normalized: 4
Human KOR [15]; Log [ligand] (M) -9
  stimulation of [35S]GTPγS binding, normalized: 20.6 and 20.7 and 0
Human KOR [15]; Log [ligand] (M) -10
  stimulation of [35S]GTPγS binding, normalized: 8.5 and 3.1 and 0.3
Human KOR [15]; Log [ligand] (M) -11
  stimulation of [35S]GTPγS binding, normalized: 8.8 and 6 and 1
Human KOR [15]; Log [ligand] (M) -12
  stimulation of [35S]GTPγS binding, normalized: 2
